# Experimental data taken from patent US20210220408A1, “ARYL HYDROCARBON RECEPTOR ANTAGONISTS AND METHODS OF USE” (Magenta Therapeutics Inc., priority 2018, published 2021).
# Molecular target: T1, aryl hydrocarbon receptor (AHR) (Homo sapiens, UniProt P35869)
# T1 sequence (P35869 11-848): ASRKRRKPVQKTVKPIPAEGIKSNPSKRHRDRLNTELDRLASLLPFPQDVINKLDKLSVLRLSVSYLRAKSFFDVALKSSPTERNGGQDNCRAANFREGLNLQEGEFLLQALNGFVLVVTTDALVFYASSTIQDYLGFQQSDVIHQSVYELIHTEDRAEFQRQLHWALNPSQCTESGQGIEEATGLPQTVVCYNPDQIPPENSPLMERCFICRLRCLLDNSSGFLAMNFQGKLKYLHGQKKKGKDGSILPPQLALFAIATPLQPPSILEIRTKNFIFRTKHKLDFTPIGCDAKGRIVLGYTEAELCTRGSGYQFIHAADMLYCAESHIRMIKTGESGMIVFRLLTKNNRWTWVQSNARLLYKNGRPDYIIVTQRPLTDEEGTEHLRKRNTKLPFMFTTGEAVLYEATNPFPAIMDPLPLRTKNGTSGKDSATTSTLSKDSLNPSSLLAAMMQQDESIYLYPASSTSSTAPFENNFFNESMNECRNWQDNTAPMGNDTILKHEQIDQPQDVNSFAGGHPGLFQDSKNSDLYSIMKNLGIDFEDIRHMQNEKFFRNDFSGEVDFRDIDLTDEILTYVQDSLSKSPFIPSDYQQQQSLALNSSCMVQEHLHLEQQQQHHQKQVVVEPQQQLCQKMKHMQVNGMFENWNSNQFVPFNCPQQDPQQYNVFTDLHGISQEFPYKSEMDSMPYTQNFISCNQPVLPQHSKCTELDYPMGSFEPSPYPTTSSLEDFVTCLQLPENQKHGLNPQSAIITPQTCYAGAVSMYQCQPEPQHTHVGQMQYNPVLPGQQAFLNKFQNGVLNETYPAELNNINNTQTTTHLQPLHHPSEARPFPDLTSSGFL
# Assay: DRE-Luciferase reporter high-throughput screen (AHR antagonist, VAF347-activated)
row,SMILES,IC50 [µM]
1,COc1ccc(C2=C(C#N)c3nc4ccccc4n3C(=O)C2C#N)cc1 (stereo not shown) [121B],0.5 to 1
2,COc1ccc(-c2csc(C3=C(N)N(C(C)C)CC3=O)n2)cc1 [compound 55],0.5 to 1
3,CCCn1ncc(C(=O)Nc2ccc(N3CCCCC3)c(F)c2)c1C [compound 35],0.5 to 1
4,CS(=O)(=O)c1ccc(-c2csc(-c3cccs3)n2)cc1 [compound 61],0.2 to 0.5
5,O=C(Nc1ncccc1Br)c1cc(-n2cccn2)ccn1 [17A],1 to 2
6,O=C(c1csc(-c2ccsc2)n1)N1CCCc2cc(C(F)(F)F)ccc21 [37B],0.2 to 0.5
7,c1cncc(-c2noc(-c3cc(-c4cccs4)[nH]n3)n2)c1 [compound 144],0.5 to 1
8,CNc1nc(-c2sc3ncnn3c2C)cs1 [40B],1 to 2
9,CCN(C(=O)C1CC1)c1nc(-c2ccc(OC)cc2)cs1 [58A],1 to 2
10,CNC(=O)c1ccc(CN(C)C(=O)c2ccc(-c3nnc(-c4ccccc4C)o3)cc2)cc1 [140A],1 to 2
11,O=C(Nc1ccc(C(F)(F)F)oc1=O)c1ccc(Cl)cc1 [17B],0.5 to 1
12,O=C(NCCC1=CCCCC1)c1[nH]nc2c1CCCC2 [109B],1 to 2
13,O=C(Nc1ccc(-c2cnc(C3CC3)o2)cc1)c1cccc(F)c1 [2A],> 2
14,C=C(Cc1nnc(C(C)C)s1)c1cn(CCOC)cc2c(=O)n(-c3ccccc3)nc1-2 [175A],> 2
15,COC(OC)c1ccc(C#N)c(=O)n1Cc1ccc(Cl)cc1 [92B],1 to 2
16,CC(=O)c1cnc(N2CCN(c3cccc(Cl)c3)CC2)nc1C [69A],1 to 2
17,O=C(Nc1ccc2[nH]c(C(F)(F)F)nc2c1)c1cccn(Cc2ccccc2)c1=O [compound 49],< 0.2
18,CCOC(=O)c1c(N)sc(C(=O)Nc2cccc(C(F)(F)F)c2)c1C [20A],1 to 2
19,COc1cccc(Cn2c3c(cc(NC(=O)c4ccc(C)cc4)c2=O)C(=O)CCC3)c1 [44A],1 to 2
20,Cc1nc(NC(=O)c2cc(C(C)(C)C)n[nH]2)sc1SCC#N [34A],> 2
21,O=C(c1cc2sc3ccccc3c2s1)N1CCCCC1 [186A],> 2
22,O=C(Nc1cc2c(s1)CCCC2)c1ccccc1 [21B],1 to 2
23,COc1ccc2c(c1)-c1cccc([N+](=O)[O-])c1CC2C#N (stereo not shown) [compound 152],0.5 to 1
24,Cn1nc(C2CC2)cc1C(=O)Nc1ccc(I)cc1 [compound 36],0.5 to 1

row,SMILES,IC50 [µM]
1,CSc1cc(CSc2ccc(Cl)cc2)nc(-c2ccccn2)n1 [85A],1 to 2
2,C/C(=N\CCc1ccccc1)c1c(C(F)(F)F)[nH]n(-c2nc3ccccc3s2)c1=O [153A],> 2
3,N#Cc1ccc(CSc2ncc3ccccn23)cc1 [115A],1 to 2
4,COc1ccc(OCc2nc(-c3cccc(F)c3)cs2)cc1 [34B],1 to 2
5,Cc1c(C(N)=O)nnc2cc(-c3ccccc3)nn12 [75B],1 to 2
6,O=C(Nc1ccc2c(c1)ncn2-c1ccccc1)c1ccc(Cl)cc1 [39A],1 to 2
7,COc1ccc(Cl)cc1C(=O)Nc1ccc(NC(=O)c2cccc(S(C)(=O)=O)c2)c(Cl)c1 [10B],0.2 to 0.5
8,Nc1cnc(C(=O)c2ccc(Cl)cc2)s1 [66A],1 to 2
9,CCCc1c(C)nc(Nc2nc(C)c3cc(C)cc(C)c3n2)[nH]c1=O [163A],1 to 2
10,CCc1c(C(=O)Nc2c(C)nn(-c3ccccc3)c2C)cnn1-c1ccc([N+](=O)[O-])cc1 [30A],1 to 2
11,CC(=O)N(CCn1nc(C)cc1C)c1nc2c(F)cc(F)cc2s1 [compound 93],0.2 to 0.5
12,COc1c(C(=O)Nc2ccc(Cl)cc2)ccc2ccccc12 [20B],0.5 to 1
13,Cc1cccc(-n2ccc(=O)c(C(=O)Nc3ccccc3F)n2)c1 [compound 31],0.2 to 0.5
14,CCn1cc(C(=O)Nc2ccc(C(C)C)cc2)cn1 [23A],1 to 2
15,COc1ccccc1N(C(=O)c1ccc(O)nc1)c1nc(-c2ccc([N+](=O)[O-])cc2)cs1 [compound 56],0.2 to 0.5
16,COc1nc2ccccc2nc1CCC(=O)NC1CCCCCC1 [161A],> 2
17,Cc1c(Br)c(C(=O)N2CCc3ccccc32)nn1C [61B],1 to 2
18,COc1ccc(Sc2nccc(N(C)C)c2C#N)cc1 [95A],> 2
19,COc1ccc2[nH]c(C(=O)Nc3ccc(Br)c(C)n3)cc2c1 [25B],0.2 to 0.5
20,COCCN1Cc2cccc(C(=O)Nc3ccc(C)c(F)c3)c2C1=O [compound 32],0.2 to 0.5
21,CC(C)NC(=O)c1nc(-c2cn(-c3ccccc3)cn2)n2ccccc12 [101A],1 to 2
22,O=C(Nc1cc(=O)c2ccccc2o1)c1ccc(Cl)cc1 [45A],> 2
23,COc1ccc(C(=O)Nc2cc(C)cc(C)n2)cc1 [9B],1 to 2
24,Cc1[nH]c2c(C(=O)Nc3cccc(CN4CCOC4=O)c3)cccc2c1C [40A],1 to 2

row,SMILES,IC50 [µM]
1,Cc1ccc(NC(=O)c2ccc(OC(F)(F)F)cc2)nc1 [compound 10],0.5 to 1
2,CC1CN=C(N2CCN(c3nc4c(cc3C#N)CCC4)CC2)S1 (stereo not shown) [76A],1 to 2
3,O=c1[nH]c2ccccc2nc1NCc1ccc(F)cc1 [168A],1 to 2
4,Cc1ccc(NC(=O)c2cc(C(C)C)n[nH]2)cc1 [24A],> 2
5,c1ccc(-c2cc(-c3cn4cccnc4n3)on2)cc1 [128A],1 to 2
6,COc1ccccc1C(=O)Nc1c(C)cc(C)c2cccnc12 [27B],1 to 2
7,CC(=O)N(CCc1ccccc1F)c1nc2ccccc2s1 [108B],1 to 2
8,C(#Cc1ccc(-c2ccn[nH]2)cc1)c1ccccc1 [103A],1 to 2
9,COC(OC)c1ccnc(-c2ccc(I)c(F)c2)n1 [84A],1 to 2
10,N#Cc1c(-c2ccc(Br)cc2)csc1N1CCCCC1 [150A],> 2
11,Cc1ccc2nc3c(c(N)c2c1)CCN3c1ccccc1 [124B],0.5 to 1
12,Cc1nc2nc(SCc3ccc(Cl)cc3)nn2c(C)c1Cl [74B],1 to 2
13,CN(CC(=O)NC(=O)Nc1ccccc1)Cc1ccc(Cl)s1 [compound 153],0.5 to 1
14,O=C(NCCc1ccc(Cl)cc1)c1cccc2nsnc12 [107B],0.2 to 0.5
15,CCOC(=O)c1sc(NC(=O)c2ccc3ncsc3c2)cc1C [compound 39],0.5 to 1
16,CN1CC(c2ccccc2)=Cc2c1ccc1nonc21 [188A],1 to 2
17,CCc1cccc2c(C(=O)CSc3nnnn3C)c[nH]c12 [63B],1 to 2
18,CN(/N=C/c1cc(Br)cs1)c1ccc(Cl)nn1 [50B],0.5 to 1
19,Cc1cnn(Cc2ncc(-c3ccccc3Br)o2)c1 [77B],> 2
20,COc1ccc(-c2cnn3c(C)cc(C)nc23)cc1OC [71B],1 to 2
21,Fc1ccc(-c2ccc(-c3nnc4n3CCCCC4)s2)cc1 [149A],> 2
22,CCC1CCc2c(sc(NC(=O)c3c(C)noc3C)c2C(N)=O)C1 (stereo not shown) [31B],1 to 2
23,O=C(Nc1cccc(Cl)c1)c1ccc(-n2cccn2)c([N+](=O)[O-])c1 [4A],1 to 2
24,Cc1ccc(N2CCN(C(=O)Nc3cc(F)cc(F)c3)CC2)nn1 [78A],1 to 2

row,SMILES,IC50 [µM]
1,CC(NC(=O)c1c(N)n(C)c2ccccc2c1=O)c1ccccc1 (stereo not shown) [165A],> 2
2,Cc1c(-c2cc(NC(=O)C3CC3)[nH]n2)sc2ccc(Cl)cc12 [105A],> 2
3,Brc1ccc(-c2ccc(NC3CCCC3)nn2)cc1 [49B],1 to 2
4,CC(C)Nc1ccc(-n2nc3ccccc3[n+]2[O-])cc1 [176A],1 to 2
5,C#CCOc1ccc(C(=O)Nc2cccc(OC)c2)cc1 [1A],> 2
6,O=C(c1csc2nc(-c3ccc(F)cc3)cn12)N1C[C@@H]2CC[C@@H]1C2 [97A],1 to 2
7,Cc1c(C(=O)OC2CCCC2)[nH]c2c1C(=O)CCC2 [179A],> 2
8,CS(=O)(=O)N1CCc2cc(-c3csc(Cc4cn5cc(Cl)cc(Cl)c5n4)n3)ccc21 [57A],1 to 2
9,CNC(=O)N(C)C(=O)c1cnc2onc(-c3ccc(C)cc3)c2c1 [173A],1 to 2
10,Cn1c(N)c(-c2csc(-c3cccc(Cl)c3)n2)c(=O)n(C)c1=O [36B],1 to 2
11,Clc1ccccc1CNc1ccc(-c2nc3ncccc3o2)cc1 [172A],1 to 2
12,c1ccc(-c2nc(-c3ccc4c(c3)CCO4)no2)cc1 [85B],0.5 to 1
13,Cc1c(Cl)cccc1NC(=O)c1occc1COc1ccccc1 [19A],1 to 2
14,Cc1nnc(Oc2ccc(Cl)cc2Cl)c2ccccc12 [159A],1 to 2
15,Clc1ccc(-c2csc(-c3ccc4c(c3)CCO4)n2)s1 [38B],0.5 to 1
16,N#Cc1ccc(OCc2ncc(C(F)(F)F)cc2Cl)cc1 [93A],1 to 2
17,CSc1ccc(-c2nnc(NC(=O)C(C)(C)C)s2)cc1 [99B],> 2
18,CCOC(=O)c1ccc(Nc2nc3nonc3[nH]/c2=N\OC(C)=O)cc1 [97B],1 to 2
19,Cc1cccc(NC(=O)c2nc(-c3cn(CC4CCCO4)cn3)n3ccccc23)c1 (stereo not shown) [47A],> 2
20,Cc1cc2cc(Nc3nccc(C(F)(F)F)n3)ccc2[nH]1 [compound 84],0.2 to 0.5
21,COc1cc(OC)c(NC(=O)c2[nH]nc3c2CSc2ccccc2-3)cc1Cl [compound 34],0.2 to 0.5
22,COCCNc1c(C)c(C)nc2cc(-c3cc(C)oc3C)nn12 [119A],1 to 2
